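Cultured in 96-well plates, cells were exposed to test compound for 48 hours across five concentrations. TGI: total growth inhibition.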
How the values were obtained:
Test in all cases: NCI anticancer screen, dose series, 48 h
786-0 renal = tested on: 786-0 renal
A549 NSCLC = tested on: A549 NSCLC
COLO 205 colon = tested on: COLO 205 colon
HCC-2998 colon = tested on: HCC-2998 colon
IGROV1 ovarian = tested on: IGROV1 ovarian
MCF7 breast = tested on: MCF7 breast
MDA-MB-231 breast = tested on: MDA-MB-231 breast
NCI-H522 lung = tested on: NCI-H522 lung
NCI/ADR-RES ovarian = tested on: NCI/ADR-RES ovarian
OVCAR-4 ovarian = tested on: OVCAR-4 ovarian
OVCAR-8 ovarian = tested on: OVCAR-8 ovarian
RPMI-8226 leukemia = tested on: RPMI-8226 leukemia
RXF 393 renal = tested on: RXF 393 renal
SF-539 CNS = tested on: SF-539 CNS
SK-MEL-5 melanoma = tested on: SK-MEL-5 melanoma
TK-10 renal = tested on: TK-10 renal
UACC-62 melanoma = tested on: UACC-62 melanoma
HL-60(TB) leukemia = tested on: HL-60(TB) leukemia
OVCAR-3 ovarian = tested on: OVCAR-3 ovarian
DU-145 prostate = tested on: DU-145 prostate

| Structure (SMILES) | TGI (786-0 renal) [µM] | TGI (A549 NSCLC) [µM] | TGI (COLO 205 colon) [µM] | TGI (HCC-2998 colon) [µM] | TGI (IGROV1 ovarian) [µM] | TGI (MCF7 breast) [µM] | TGI (MDA-MB-231 breast) [µM] | TGI (NCI-H522 lung) [µM] | TGI (NCI/ADR-RES ovarian) [µM] | TGI (OVCAR-4 ovarian) [µM] | TGI (OVCAR-8 ovarian) [µM] | TGI (RPMI-8226 leukemia) [µM] | TGI (RXF 393 renal) [µM] | TGI (SF-539 CNS) [µM] | TGI (SK-MEL-5 melanoma) [µM] | TGI (TK-10 renal) [µM] | TGI (UACC-62 melanoma) [µM] | TGI (HL-60(TB) leukemia) [µM] | TGI (OVCAR-3 ovarian) [µM] | TGI (DU-145 prostate) [µM] |
| --- | --- | --- | --- | --- | --- | --- | --- | --- | --- | --- | --- | --- | --- | --- | --- | --- | --- | --- | --- | --- |
| CN1Cc2cc3cc4c(cc3nc2N(C)C1)OCCO4 | > 100 | > 100 | > 100 | > 100 | > 100 | > 100 | > 100 | > 100 | > 100 | > 100 | > 100 | > 100 | > 100 | > 100 | > 100 | > 100 | > 100 | – | – | – |
| Cc1ccc(NCC(=O)N2CC(=O)Nc3ccccc32)c(C)c1 | > 100 | > 100 | > 100 | > 100 | – | – | – | > 100 | – | > 100 | > 100 | > 100 | > 100 | > 100 | > 100 | > 100 | > 100 | > 100 | > 100 | – |
| Cc1cc(-c2cccc3ccccc23)c(C#N)c(=S)n1C1OC(CO)C(O)C(O)C1O (stereo not drawn) | > 100 | > 100 | > 100 | > 100 | > 100 | > 100 | > 100 | – | > 100 | > 100 | > 100 | – | > 100 | > 100 | > 100 | > 100 | > 100 | > 100 | > 100 | – |
| CS(=O)(=O)OC1CCC2(C#N)CCC1C2=O (stereo not drawn) | > 100 | > 100 | > 100 | > 100 | > 100 | – | – | > 100 | – | > 100 | > 100 | 44.4 | > 100 | > 100 | > 100 | > 100 | > 100 | > 100 | > 100 | – |
| N=C(N)C1CN(CCCCCCCCCCN2CC(C(=N)N)C(=O)NC2=O)C(=O)NC1=O (stereo not drawn) | > 10 | > 10 | > 10 | > 10 | > 10 | > 10 | > 10 | > 10 | > 10 | > 10 | > 10 | > 10 | > 10 | > 10 | > 10 | > 10 | > 10 | > 10 | > 10 | – |
| COc1cc(C2=C(c3cc(OC)c4ccccc4c3OC)C(=O)c3ccccc3C2=O)c(OC)c2ccccc12 | > 100 | > 100 | > 100 | – | > 100 | > 100 | – | > 100 | > 100 | > 100 | > 100 | – | > 100 | > 100 | > 100 | > 100 | > 100 | > 100 | > 100 | > 100 |
| CC(C)=CC1C[C@H](C2CC=C3C2(C)CCC2[C@@]3(C)C(=O)CC3[C@]2(C)C=CC(=O)[C@]3(C)CO)CO1 (stereo partly drawn) | 15.7 | 52.4 | 27.2 | 30 | 29.5 | – | – | 8.71 | – | 41.3 | > 24.4 | 15.3 | 23.2 | 11.9 | 25 | 52.4 | 31 | 9.42 | 13.2 | – |
| O=c1cc(-c2ccccc2)c2ccccc2[nH]1 | > 100 | > 100 | > 100 | – | > 100 | – | – | > 100 | – | > 100 | > 100 | > 100 | > 100 | > 100 | 93.2 | > 100 | > 100 | > 100 | – | – |
| CCc1cc2c(c3c1CCC3=O)CC1(Cc3ccc(C)cc3C1)C2 (stereo not drawn) | > 100 | 40.8 | > 100 | > 100 | > 100 | > 100 | > 100 | > 100 | > 100 | 98 | > 100 | 94.8 | > 100 | > 100 | 76.8 | > 100 | > 100 | 41 | > 100 | – |
| Cc1c2ccncc2c(C)c2c1[nH]c1ccc(OC(C)C)cc12 | 2.44 | 3.1 | 2.81 | 3.48 | 2.79 | – | – | 3.06 | – | 3.14 | 2.28 | 5.12 | 2.76 | 3.36 | 3.2 | 3.37 | – | 4.46 | 2.98 | – |
| CN1CN(c2ccccc2)C2(CCN(Cc3csc4ccccc34)CC2)C1=O | > 100 | 74 | 30.2 | 42.5 | 44.7 | 37.3 | – | 35.7 | 61.1 | – | 72.6 | 7.5 | 35.2 | 48.3 | 22.4 | 41.2 | > 100 | 32.8 | 27.4 | > 100 |
| CN1C2=C(CC3=C1CC(C)(C)CC3=O)C(=O)CC(C)(C)C2 | > 100 | > 100 | – | > 100 | > 100 | > 100 | – | – | > 100 | > 100 | > 100 | > 100 | – | > 100 | > 100 | > 100 | > 100 | > 100 | > 100 | – |

Source: PubChem BioAssay (NCI)
